Tests used:
HDAC8 = molecular target: T1, HDAC8 (Homo sapiens, UniProt Q9BY41); test: In vitro HDAC enzyme inhibition assay, HDAC8; format: biochemical; settings: for HDAC8/HDAC6 in vitro selectivity: ratio of IC50 for HDAC8 relative to that of HDAC6; for IC50: recombinant full-length HDAC8, substrate MAZ1675 282 μM
T1 construct: Recombinant, full-length HDAC protein (BPS Biosciences) was incubated with fluorophore conjugated substrate; purchased BPS Biosciences
T1 sequence (Q9BY41 1-377): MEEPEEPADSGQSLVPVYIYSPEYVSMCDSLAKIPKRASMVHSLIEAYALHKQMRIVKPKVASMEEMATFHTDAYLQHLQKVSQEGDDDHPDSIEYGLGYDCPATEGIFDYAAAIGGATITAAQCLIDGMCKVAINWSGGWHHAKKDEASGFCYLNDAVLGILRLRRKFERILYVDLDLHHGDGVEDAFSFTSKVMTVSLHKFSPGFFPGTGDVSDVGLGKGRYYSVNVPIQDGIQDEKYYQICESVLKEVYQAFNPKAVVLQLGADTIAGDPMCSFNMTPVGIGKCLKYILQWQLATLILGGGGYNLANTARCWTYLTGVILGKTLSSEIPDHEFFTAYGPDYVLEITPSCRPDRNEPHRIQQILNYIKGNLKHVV
Summary of the method: (§1)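 Deacetylase activity of full-length recombinant HDAC assessed via trypsin-coupled AMC release from substrate at Km concentration, pH 7.4 buffer with TCEP. Kinetic fluorescence slopes were normalized to controls.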

HDAC5 = molecular target: T2, HDAC5 (Homo sapiens, UniProt Q9UQL6); test: In vitro HDAC enzyme inhibition assay, HDAC5; format: biochemical; settings: for HDAC5/HDAC6 in vitro selectivity: ratio of IC50 for HDAC5 relative to that of HDAC6; for IC50: recombinant full-length HDAC5, substrate MAZ1675 40 μM; for selectivity toward HDAC6 compared to HDAC5 (in words): tested in vitro
T2 construct: Recombinant, full-length HDAC protein (BPS Biosciences) was incubated with fluorophore conjugated substrate; purchased BPS Biosciences
T2 sequence (Q9UQL6 whole entry): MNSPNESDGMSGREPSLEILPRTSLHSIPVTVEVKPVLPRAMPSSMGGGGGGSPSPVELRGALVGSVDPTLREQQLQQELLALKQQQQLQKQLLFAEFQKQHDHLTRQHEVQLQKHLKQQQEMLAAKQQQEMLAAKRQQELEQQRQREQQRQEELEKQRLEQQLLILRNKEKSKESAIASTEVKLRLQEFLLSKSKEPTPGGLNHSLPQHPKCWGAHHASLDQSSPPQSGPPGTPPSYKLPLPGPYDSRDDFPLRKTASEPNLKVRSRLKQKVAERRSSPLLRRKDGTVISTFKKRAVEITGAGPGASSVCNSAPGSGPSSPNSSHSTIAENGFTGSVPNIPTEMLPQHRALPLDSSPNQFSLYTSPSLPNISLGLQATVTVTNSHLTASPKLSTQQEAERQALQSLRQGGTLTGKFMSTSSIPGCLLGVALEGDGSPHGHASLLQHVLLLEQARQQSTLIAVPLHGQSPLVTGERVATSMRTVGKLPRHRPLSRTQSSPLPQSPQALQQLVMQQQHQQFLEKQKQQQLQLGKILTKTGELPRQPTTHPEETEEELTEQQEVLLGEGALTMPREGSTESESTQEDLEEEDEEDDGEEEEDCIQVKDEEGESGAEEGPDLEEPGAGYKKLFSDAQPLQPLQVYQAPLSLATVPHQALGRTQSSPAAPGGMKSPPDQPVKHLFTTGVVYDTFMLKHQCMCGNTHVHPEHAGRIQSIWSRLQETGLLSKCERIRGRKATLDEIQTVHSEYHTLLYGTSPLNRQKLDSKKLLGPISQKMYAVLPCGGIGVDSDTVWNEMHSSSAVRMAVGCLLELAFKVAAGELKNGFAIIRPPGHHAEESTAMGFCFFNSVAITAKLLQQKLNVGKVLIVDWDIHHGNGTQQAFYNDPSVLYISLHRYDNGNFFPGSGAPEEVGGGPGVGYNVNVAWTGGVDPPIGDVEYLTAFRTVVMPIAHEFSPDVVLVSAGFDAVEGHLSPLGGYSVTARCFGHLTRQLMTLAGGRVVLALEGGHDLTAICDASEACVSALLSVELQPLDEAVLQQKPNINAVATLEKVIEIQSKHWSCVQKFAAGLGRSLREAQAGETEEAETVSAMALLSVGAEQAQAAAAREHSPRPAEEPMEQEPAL
Summary of the method: as §1

HDAC9 = molecular target: T3, HDAC9 (Homo sapiens, UniProt Q9UKV0); test: In vitro HDAC enzyme inhibition assay, HDAC9; format: biochemical; settings: for HDAC9/HDAC6 in vitro selectivity: ratio of IC50 for HDAC9 relative to that of HDAC6; for IC50: recombinant full-length HDAC9, substrate MAZ1675 26 μM; for selectivity toward HDAC6 compared to HDAC9 (in words): tested in vitro
T3 construct: Recombinant, full-length HDAC protein (BPS Biosciences) was incubated with fluorophore conjugated substrate; purchased BPS Biosciences
T3 sequence (Q9UKV0 whole entry): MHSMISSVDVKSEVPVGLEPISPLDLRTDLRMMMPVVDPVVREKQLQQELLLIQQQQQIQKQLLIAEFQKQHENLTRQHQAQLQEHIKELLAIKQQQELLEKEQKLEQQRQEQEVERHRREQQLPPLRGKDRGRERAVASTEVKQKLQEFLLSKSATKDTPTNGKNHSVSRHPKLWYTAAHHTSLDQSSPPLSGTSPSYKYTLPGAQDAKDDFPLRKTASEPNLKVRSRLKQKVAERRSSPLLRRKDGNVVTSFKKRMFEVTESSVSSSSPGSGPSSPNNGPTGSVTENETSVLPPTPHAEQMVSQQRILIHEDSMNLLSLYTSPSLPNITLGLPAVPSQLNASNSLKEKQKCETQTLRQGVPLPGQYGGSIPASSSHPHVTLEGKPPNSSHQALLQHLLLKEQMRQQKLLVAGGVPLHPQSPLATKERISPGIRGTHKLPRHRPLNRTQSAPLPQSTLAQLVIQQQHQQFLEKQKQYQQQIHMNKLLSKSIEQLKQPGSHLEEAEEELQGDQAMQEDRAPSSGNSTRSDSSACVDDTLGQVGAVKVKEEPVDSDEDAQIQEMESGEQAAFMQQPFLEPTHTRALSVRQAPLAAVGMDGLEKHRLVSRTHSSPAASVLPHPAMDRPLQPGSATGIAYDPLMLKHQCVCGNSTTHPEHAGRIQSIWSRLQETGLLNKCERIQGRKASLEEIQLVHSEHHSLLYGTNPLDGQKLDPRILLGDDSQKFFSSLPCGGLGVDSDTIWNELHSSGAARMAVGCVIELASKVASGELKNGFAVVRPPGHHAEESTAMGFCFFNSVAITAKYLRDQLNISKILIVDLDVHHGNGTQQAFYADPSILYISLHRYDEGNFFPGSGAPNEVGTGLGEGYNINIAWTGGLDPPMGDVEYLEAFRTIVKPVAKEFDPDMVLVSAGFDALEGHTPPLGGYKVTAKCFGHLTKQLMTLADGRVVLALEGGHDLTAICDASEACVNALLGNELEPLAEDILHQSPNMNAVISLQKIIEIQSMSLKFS
Summary of the method: as §1

HDAC2 = molecular target: T4, HDAC2 (Homo sapiens, UniProt Q92769); test: In vitro HDAC enzyme inhibition assay, HDAC2; format: biochemical; settings: for HDAC2/HDAC6 in vitro selectivity: ratio of IC50 for HDAC2 relative to that of HDAC6; for IC50: recombinant full-length HDAC2, substrate MAZ1600 22 μM
T4 construct: Recombinant, full-length HDAC protein (BPS Biosciences) was incubated with fluorophore conjugated substrate; purchased BPS Biosciences
T4 sequence (Q92769 whole entry): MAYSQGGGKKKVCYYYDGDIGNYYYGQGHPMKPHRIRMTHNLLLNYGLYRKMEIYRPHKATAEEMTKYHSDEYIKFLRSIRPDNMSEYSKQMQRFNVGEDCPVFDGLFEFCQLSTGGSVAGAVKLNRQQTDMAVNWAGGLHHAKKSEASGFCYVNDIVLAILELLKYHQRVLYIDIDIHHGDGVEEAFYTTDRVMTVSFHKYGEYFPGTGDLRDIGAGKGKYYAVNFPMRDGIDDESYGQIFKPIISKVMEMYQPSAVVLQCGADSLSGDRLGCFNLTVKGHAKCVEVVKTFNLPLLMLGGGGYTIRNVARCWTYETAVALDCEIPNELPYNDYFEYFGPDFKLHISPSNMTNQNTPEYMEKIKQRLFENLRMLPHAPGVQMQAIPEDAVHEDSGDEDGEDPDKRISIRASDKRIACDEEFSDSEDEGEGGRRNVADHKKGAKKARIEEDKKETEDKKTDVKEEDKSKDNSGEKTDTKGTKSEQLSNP
Summary of the method: as §1

HDAC7 = molecular target: T5, HDAC7 (Homo sapiens, UniProt Q8WUI4); test: In vitro HDAC enzyme inhibition assay, HDAC7; format: biochemical; settings: for HDAC7/HDAC6 in vitro selectivity: ratio of IC50 for HDAC7 relative to that of HDAC6; for IC50: recombinant full-length HDAC7, substrate MAZ1675 22 μM
T5 construct: Recombinant, full-length HDAC protein (BPS Biosciences) was incubated with fluorophore conjugated substrate; purchased BPS Biosciences
T5 sequence (Q8WUI4 1-952): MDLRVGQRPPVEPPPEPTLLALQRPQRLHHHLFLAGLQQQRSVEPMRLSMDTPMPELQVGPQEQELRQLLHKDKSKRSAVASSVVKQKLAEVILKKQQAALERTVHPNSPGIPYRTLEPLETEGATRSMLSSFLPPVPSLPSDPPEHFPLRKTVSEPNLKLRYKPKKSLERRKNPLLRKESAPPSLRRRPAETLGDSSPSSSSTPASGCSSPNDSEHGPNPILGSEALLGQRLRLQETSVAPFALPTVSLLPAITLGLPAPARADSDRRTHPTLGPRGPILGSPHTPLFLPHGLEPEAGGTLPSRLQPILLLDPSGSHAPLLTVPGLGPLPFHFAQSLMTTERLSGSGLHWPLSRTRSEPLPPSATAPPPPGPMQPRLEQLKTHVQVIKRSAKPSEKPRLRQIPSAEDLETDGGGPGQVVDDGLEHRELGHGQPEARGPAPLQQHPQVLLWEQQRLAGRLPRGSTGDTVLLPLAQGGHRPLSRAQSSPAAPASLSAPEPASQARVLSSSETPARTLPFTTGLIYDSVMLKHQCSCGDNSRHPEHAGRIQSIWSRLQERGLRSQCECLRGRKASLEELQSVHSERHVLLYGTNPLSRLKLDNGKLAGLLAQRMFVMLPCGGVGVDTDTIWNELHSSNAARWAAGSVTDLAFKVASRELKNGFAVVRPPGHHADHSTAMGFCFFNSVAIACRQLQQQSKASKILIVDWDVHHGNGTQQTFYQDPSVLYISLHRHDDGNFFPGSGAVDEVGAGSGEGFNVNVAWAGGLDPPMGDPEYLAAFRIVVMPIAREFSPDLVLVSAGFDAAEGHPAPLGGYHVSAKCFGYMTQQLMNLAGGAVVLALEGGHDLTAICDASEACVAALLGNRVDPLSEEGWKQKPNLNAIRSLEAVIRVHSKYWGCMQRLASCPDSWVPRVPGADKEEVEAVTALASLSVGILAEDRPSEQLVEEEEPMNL
Summary of the method: as §1

acetylated tubulin = test: High-content image analysis of induction of acetylated tubulin in A549 cells; settings: for EC50: Homo sapiens, A549, 8 h, read-out: EC50 for half-maximal induction of acetylated tubulin (AcTubulin); for AcHistone/AcTubulin in cell selectivity toward HDAC6: ratio of EC50 acetylated histone to EC50 acetylated tubulin
HDAC3 = molecular target: T6, HDAC3 (Homo sapiens, UniProt O15379); test: In vitro HDAC enzyme inhibition assay, HDAC3; format: biochemical; settings: for HDAC3/HDAC6 in vitro selectivity: ratio of IC50 for HDAC3 relative to that of HDAC6; for IC50: recombinant full-length HDAC3, substrate MAZ1600 9 μM
T6 construct: Recombinant, full-length HDAC protein (BPS Biosciences) was incubated with fluorophore conjugated substrate; purchased BPS Biosciences
T6 sequence (O15379 whole entry): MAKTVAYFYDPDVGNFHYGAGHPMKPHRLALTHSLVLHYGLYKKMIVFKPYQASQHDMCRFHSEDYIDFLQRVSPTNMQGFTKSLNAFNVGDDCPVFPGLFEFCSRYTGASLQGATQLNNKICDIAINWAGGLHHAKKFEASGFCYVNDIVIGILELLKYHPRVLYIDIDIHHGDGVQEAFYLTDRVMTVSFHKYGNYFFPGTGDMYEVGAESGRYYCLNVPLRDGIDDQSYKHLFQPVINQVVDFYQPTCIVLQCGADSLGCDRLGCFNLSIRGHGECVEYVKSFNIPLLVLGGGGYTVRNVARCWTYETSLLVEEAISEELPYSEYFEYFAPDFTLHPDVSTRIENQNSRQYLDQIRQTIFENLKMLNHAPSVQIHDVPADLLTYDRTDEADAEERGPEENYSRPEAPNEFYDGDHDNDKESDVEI
T6 sequence (Q9Y618 395-489 partner limits assumed): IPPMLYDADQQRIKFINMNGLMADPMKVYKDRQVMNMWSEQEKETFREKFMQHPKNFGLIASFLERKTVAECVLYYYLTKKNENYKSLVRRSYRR
Summary of the method: as §1

| Structure (SMILES) | HDAC8/HDAC6 in vitro selectivity (HDAC8) | IC50 (HDAC8) | HDAC5/HDAC6 in vitro selectivity (HDAC5) | IC50 (HDAC5) | selectivity toward HDAC6 compared to HDAC5 (in words) (HDAC5) | HDAC9/HDAC6 in vitro selectivity (HDAC9) | IC50 (HDAC9) | selectivity toward HDAC6 compared to HDAC9 (in words) (HDAC9) | HDAC2/HDAC6 in vitro selectivity (HDAC2) | IC50 (HDAC2) | HDAC7/HDAC6 in vitro selectivity (HDAC7) | IC50 (HDAC7) | EC50 (acetylated tubulin) | AcHistone/AcTubulin in cell selectivity toward HDAC6 (acetylated tubulin; A549 cells) | HDAC3/HDAC6 in vitro selectivity (HDAC3) | IC50 (HDAC3) | levels of acetylated tubulin, dose response (in words) (acetylated tubulin; A549 cells, FIG. 11) |
| --- | --- | --- | --- | --- | --- | --- | --- | --- | --- | --- | --- | --- | --- | --- | --- | --- | --- |
| O=C(NO)c1ccc(Cn2c(=O)[nH]c3cc(Br)ccc32)cc1 [B5, 4-((5-bromo-2-oxo-2,3-dihydro-1H-benzo[d]imidazol-1-yl)methyl)-N-hydroxybenzamide] | 12655 | 259 nM | 39409 | 808 nM | exceptionally high selectivity (Inhibitors with in vitro selectivity values for HDAC6 of at least 30,000 are considered to have exceptionally high selectivity toward HDAC6) | 39480 | 809 nM | exceptionally high selectivity (Inhibitors with in vitro selectivity values for HDAC6 of at least 30,000 are considered to have exceptionally high selectivity toward HDAC6) | 444 | 9.09 nM | 9297 | 190 nM | 132 nM | 6.398 | 495 | 10.1 nM | – |
| O=C(NO)c1ccc(Cn2c(=O)[nH]c3cc(C(F)(F)F)ccc32)cc1 [B6, N-hydroxy-4-((2-oxo-5-(trifluoromethyl)-2,3-dihydro-1H-benzo[d]imidazol-1-yl)methyl)benzamide] | 48637 | 302 nM | 122813 | 762 nM | exceptionally high selectivity (Inhibitors with in vitro selectivity values for HDAC6 of at least 30,000 are considered to have exceptionally high selectivity toward HDAC6) | 114680 | 712 nM | exceptionally high selectivity (Inhibitors with in vitro selectivity values for HDAC6 of at least 30,000 are considered to have exceptionally high selectivity toward HDAC6) | 1754 | 10.9 nM | 38222 | 237 nM | 48.5 nM | 12.98 | 2366 | 14.7 nM | dose-dependent increase |
| COc1ccc2c(c1)[nH]c(=O)n2Cc1ccc(C(=O)NO)cc1 [B7, N-hydroxy-4-((5-methoxy-2-oxo-2,3-dihydro-1H-benzo[d]imidazol-1-yl)methyl)benzamide] | 21403 | 551 nM | 57925 | 1490 nM | exceptionally high selectivity (Inhibitors with in vitro selectivity values for HDAC6 of at least 30,000 are considered to have exceptionally high selectivity toward HDAC6) | 47920 | 1230 nM | exceptionally high selectivity (Inhibitors with in vitro selectivity values for HDAC6 of at least 30,000 are considered to have exceptionally high selectivity toward HDAC6) | 991 | 25.5 nM | 15934 | 410 nM | 154 nM | 10.013 | 1236 | 31.8 nM | – |
| O=C(NO)c1ccc(Cn2nnc3ccccc32)cc1 [C1, 4-((1H-benzo[d][1,2,3]triazol-1-yl)methyl)-N-hydroxybenzamide] | 19098 | 305 nM | 59773 | 956 nM | exceptionally high selectivity (Inhibitors with in vitro selectivity values for HDAC6 of at least 30,000 are considered to have exceptionally high selectivity toward HDAC6) | 67800 | 1080 nM | exceptionally high selectivity (Inhibitors with in vitro selectivity values for HDAC6 of at least 30,000 are considered to have exceptionally high selectivity toward HDAC6) | 4884 | 78.1 nM | 9286 | 148 nM | 2700 nM | 2.641 | 10277 | 164 nM | – |
| O=C(NO)c1ccc(Cn2nnc3cc(F)ccc32)cc1 [C3, 4-((5-fluoro-1H-benzo[d][1,2,3]triazol-1-yl)methyl)-N-hydroxybenzamide] | 28870 | 759 nM | 68665 | 1810 nM | exceptionally high selectivity (Inhibitors with in vitro selectivity values for HDAC6 of at least 30,000 are considered to have exceptionally high selectivity toward HDAC6) | 62138 | 1630 nM | exceptionally high selectivity (Inhibitors with in vitro selectivity values for HDAC6 of at least 30,000 are considered to have exceptionally high selectivity toward HDAC6) | 10108 | 266 nM | 21126 | 555 nM | 144 nM | 10.4517 | 19646 | 516 nM | – |
